In patent publication US7795303B2, “Active agents combination exhibiting insecticidal and acaricide properties” (Bayer CropScience AG, priority 2003, dated 2010):

Tests used:
[1] = tested on: larvae of the mustard beetle (Phaedon cochleariae); assay: Phaedon larvae test; assay type: in vivo; conditions: 100 ppm, cabbage leaves dipped
Protocol: (§1) To produce a suitable preparation of active compound, 1 part by weight of active compound is mixed with the stated amounts of solvent and emulsifier, and the concentrate is diluted with emulsifier-containing water to the desired concentration.
Cabbage leaves (Brassica oleracea) are treated by being dipped into the preparation of active compound of the desired concentration and are populated with larvae of the mustard beetle (Phaedon cochleariae) while the leaves are still moist.
After the desired period of time, the kill in % is determined. 100% means that all beetle larvae have been killed; 0% means that none of the beetle larvae have been killed. The kill rates determined are calculated using the Colby formula (see page 32).

[2] = tested on: caterpillars of the army worm (Spodoptera frugiperda); assay: Spodoptera frugiperda test; assay type: in vivo; conditions: 100 ppm, cabbage leaves dipped
Protocol: as §1
Cabbage leaves (Brassica oleracea) are treated by being dipped into the preparation of active compound of the desired concentration and are populated with caterpillars of the army worm (Spodoptera frugiperda) while the leaves are still moist.
After the desired period of time, the kill in % is determined. 100% means that all caterpillars have been killed; 0% means that none of the caterpillars have been killed. The kill rates determined are calculated using the Colby formula (see page 32).

Cc1cc(C)c(C2=C(OC(=O)CC(C)(C)C)C3(CCCC3)OC2=O)c(C)c1 [Compound (I-b-1)]
Kill rate in % after 6 d [1]: 30%
Kill rate in % after 6 d [2]: 5%
